The values that follow are results of earlier work, collected in the PKSmart pharmacokinetics tables (Seal et al. 2025).

The data set can be described thus: not given per row; by the article one of three: Lombardo et al. 2013, J Clin Pharmacol 53:178, doi 10.1177/0091270012440282; 'New Drugs at FDA', novel drug approvals for 2021 and 2022 (the article's reference 43); Yap, Li, Chen 2006, J Mol Graph Model 24:383, doi 10.1016. As to conditions: human; for clearance / Vd / half-life: in vivo; for fraction unbound: plasma.

`C[C@H]1CN(C2CCC(C#N)(c3ccc(F)cc3)CC2)CC[C@]1(C(=O)O)c1ccccc1` (stereo partly specified): the clearance (in general, the volume of plasma or blood freed of the substance per unit of time) was 0.43 mL/min/kg.
`C1=C/COCc2cc(ccc2OCCN2CCCC2)Nc2nccc(n2)-c2cccc(c2)COC/1`: the distribution volume (Vd) (usually a proportionality between amount in the body and measured concentration, not a real space) is 3.82 L/kg; the clearance was 0.58 mL/min/kg; the half-life (usually the time in which the quantity being followed falls by half) is 1660 min; the fraction unbound (usually the share of the substance not bound to proteins or other matrix) is 0.01.
Regarding `Nc1nc(NC2CC2)c2ncn([C@@H]3C=C[C@H](CO)C3)c2n1`, the clearance is 13.1 mL/min/kg.
With `CS(=O)(=O)c1ccc([C@H](O)[C@@H](CO)NC(=O)C(Cl)Cl)cc1`, the clearance was 2.62 mL/min/kg.
For the compound `C[C@]12C=CC(=O)C=C1CC[C@H]1[C@@H]3C[C@@H](O)[C@](O)(C(=O)CO)[C@@]3(C)C[C@@H](O)[C@@]12F`, the clearance was 13.1 mL/min/kg.
`Oc1ccc2c3c1O[C@@H]1[C@@H](O)CC[C@]4(O)[C@H](C2)N(CC2CCC2)CC[C@@]314`: the clearance was 29.7 mL/min/kg.
For `COCCCOc1ccnc(C[S@@+](O)c2nc3ccccc3[n-]2)c1C`, the clearance is 6 mL/min/kg.
Consider `C[C@H](NCCC(c1ccccc1)c1ccccc1)c1ccccc1`, for which the clearance was 20 mL/min/kg.
Take `C[C@]12C=CC(=O)N[C@@H]1CC[C@@H]1[C@H]2CC[C@]2(C)C(C(=O)Nc3cc(C(F)(F)F)ccc3C(F)(F)F)CC[C@@H]12` (stereo partly specified): the clearance was 0.14 mL/min/kg.
In the case of `CCN1C[C@@H](CCN2CCOCC2)C(c2ccccc2)(c2ccccc2)C1=O`, the clearance was 5.75 mL/min/kg.
With `CCN1CCC[C@@H]1CNC(=O)c1cc(S(=O)(=O)CC)ccc1OC`, the clearance was 5.71 mL/min/kg.
Consider `CCCCN(CCCC)C[C@H](O)c1cc(Cl)cc2c1-c1ccc(Cl)cc1/C2=C/c1ccc(Cl)cc1`, for which the clearance is 3.57 mL/min/kg.
`CCCN[C@@H]1CCc2nc(N)sc2C1`: the clearance was 8.2 mL/min/kg.
With `Nc1nc2c(ncn2CCC(CO)CO)c(=O)[nH]1`, the clearance was 9.36 mL/min/kg.
For the compound `Cc1ccc(C)c(OCCCC(C)(C)C(=O)O)c1`, the clearance is 1.7 mL/min/kg.
Turning to `NC[C@H]1O[C@@H](O[C@H]2C(O)[C@@H](O[C@H]3O[C@@H](CO)[C@H](O)[C@@H](N)[C@@H]3O)[C@H](N)C[C@@H]2N)[C@H](N)C[C@@H]1O` (stereo partly specified), the clearance was 1.35 mL/min/kg.
Consider `CC(=O)OCC1=C(C(=O)O)N2C(=O)C(NC(=O)Cc3cccs3)[C@@H]2SC1` (stereo partly specified), for which the clearance was 6.7 mL/min/kg.
As to `CCCCC1(CCCC)CN(c2ccccc2)c2cc(SC)c(OCC(=O)NC(C(=O)NC(CC)C(=O)O)c3ccc(O)cc3)cc2S(=O)(=O)N1` (stereo unspecified), the half-life is 142 min and the unbound share (fraction unbound) is 0.01.
As to `CC(=O)OCC(CCn1cnc2cnc(N)nc21)COC(C)=O`, the clearance is 8 mL/min/kg.
Regarding `CN(C[C@H](O)CO)C(=O)c1c(I)c(NC(=O)C(CO)CO)c(I)c(C(=O)N(C)C[C@H](O)CO)c1I`, the clearance was 1.33 mL/min/kg.
In the case of `CCOC(=O)C(Cc1ccc(F)cc1)NC(=O)C(N)Cc1ccc(N(CCCl)CCCl)cc1` (stereo unspecified), the Vd was 0.58 L/kg, the clearance was 192 mL/min/kg and the half-life is 2.4 min.
As to `Cc1cc(C=CC#N)cc(C)c1Nc1ccnc(Nc2ccc(C#N)cc2)n1`, the Vd is 2.71 L/kg, the half-life was 2670 min and the free fraction (fraction unbound) is 0.3.
As for `CC1(C)S[C@H]2C(NC(=O)C(NC(=O)N3CCNC3=O)c3ccccc3)C(=O)N2C1C(=O)O` (stereo partly specified), the clearance is 2.52 mL/min/kg.
Take `CN1CCC[C@@H]1c1cccnc1`: the clearance is 18.5 mL/min/kg.
Consider `COc1ccc(NC(=O)\C=C(C)/C=C/C=C(C)\C=C\C2=C(C)CCCC2(C)C)cc1`, for which the clearance was 98.9 mL/min/kg.
Regarding `O=C(O)CCC(NC(=O)NC(CCCCNC(=O)C(Cc1ccc2ccccc2c1)NC(=O)C1CCC(CNC(=O)CN2CCN(CC(=O)O)CCN(CC(=O)O)CCN(CC(=O)O)CC2)CC1)C(=O)O)C(=O)O` (stereo unspecified), the Vd was 2.05 L/kg, the clearance was 0.567 mL/min/kg, the half-life is 2500 min and the fraction unbound was 0.35.
As to `CN1CCN(/C=C2/N=C3CN=C(c4ccccc4Cl)c4cc([N+](=O)[O-])ccc4N3C2=O)CC1`, the clearance was 5.09 mL/min/kg.
Turning to `C[C@@H]1COc2c(N3CCN(C)CC3)c(F)c(C(=O)O)c3c(=O)ccn1c23`, the clearance is 3.5 mL/min/kg.
Turning to `Cc1cn([C@@H]2C=C[C@H](CO)O2)c(=O)[nH]c1=O`, the clearance is 8.24 mL/min/kg.
In the case of `N=C=N`, the clearance was 20 mL/min/kg.
`C=CCN1CCc2nc(N)sc2CC1`: the clearance was 7.38 mL/min/kg.
Turning to `CCOC(=O)NNc1ccc(N(CC)C[C@@H](C)O)nn1`, the clearance was 3.79 mL/min/kg.
For `CS(=O)(=O)c1ccc(Oc2cc(F)cc(C#N)c2)c2c1[C@H](O)[C@H](F)[C@@H]2F`, the volume of distribution (Vd) is 2.17 L/kg, the clearance was 2.03 mL/min/kg, the half-life was 840 min and the free fraction (fraction unbound) is 0.55.
`CC(C)(ON=C(C(=O)CC1C(=O)N2C(C(=O)O)=C(C[n+]3ccccc3)CS[C@H]12)c1csc(N)n1)C(=O)[O-]` (stereo partly specified): the clearance was 1.88 mL/min/kg.
As to `C[C@H](CCc1ccccc1)NC[C@@H](O)c1ccc(O)c(C(N)=O)c1`, the clearance is 28.1 mL/min/kg.
Turning to `NC[C@H](CC(=O)O)c1ccc(Cl)cc1`, the clearance is 2.72 mL/min/kg.
On to `CCC[C@H]1CC(C(=O)N[C@@H]([C@H]2O[C@@H](SC)[C@H](O)[C@@H](O)[C@@H]2O)[C@H](C)O)N(C)C1` (stereo partly specified), for which the clearance is 1.98 mL/min/kg.
On to `COc1cc2c(cc1OC)C(=O)C(CC1CCN(Cc3ccccc3)CC1)C2` (stereo unspecified), for which the clearance was 2.53 mL/min/kg.
Consider `C[C@H]1CO[C@@H]2Cn3cc(C(=O)NCc4ccc(F)cc4F)c(=O)c(O)c3C(=O)N12`, for which the free fraction (fraction unbound) was 0.48.
In the case of `C=CCc1ccccc1OC[C@H](O)CNC(C)C`, the clearance is 6.47 mL/min/kg.
Consider `COC(=O)C1C=C2CC(=O)CC[C@]2(C)[C@@]23O[C@H]2C[C@@]2(C)[C@H](CC[C@]24CCC(=O)O4)[C@@H]13` (stereo partly specified), for which the clearance was 2.38 mL/min/kg.
With `CC/C(=C(/c1ccccc1)c1ccc(OCCN(C)C)cc1)c1ccccc1`, the clearance is 1.4 mL/min/kg.
On to `CC1=C(/C=C/C(C)=C/C=C/C(C)=C/C(=O)Nc2ccc(O)cc2)C(C)(C)CCC1`, for which the clearance is 23.5 mL/min/kg.
With `CCCC[C@](C)(O)C/C=C\[C@H]1C(CCCCCCC(=O)OC)C(=O)C[C@@H]1O` (stereo partly specified), the clearance is 240 mL/min/kg.
Consider `C[C@H](CN1CC(=O)NC(=O)C1)N1CC(=O)NC(=O)C1`, for which the clearance is 4.42 mL/min/kg.
As to `NC(C(=O)NC1C(=O)N2C(C(=O)O)=C(Cl)CC[C@@H]12)c1ccccc1` (stereo partly specified), the clearance was 4.45 mL/min/kg.
`COc1ccc(C(=O)Nc2ccccc2CC[C@@H]2CCCCN2C)cc1`: the clearance is 177 mL/min/kg.
Regarding `C[C@@](Cc1ccc(O)c(O)c1)(NN)C(=O)O`, the clearance was 18 mL/min/kg.
Turning to `OC[C@H]1CC[C@@H](n2cnc3c(O)ncnc32)O1`, the clearance is 15.2 mL/min/kg.
For the compound `CO[C@]1(NC(=O)Cc2cccs2)C(=O)N2C(C(=O)O)=C(COC(N)=O)CS[C@@H]21`, the clearance was 2.89 mL/min/kg.
With `CCN1CC(C(=O)O)C(=O)c2ccc(-c3ccncc3)cc21` (stereo unspecified), the clearance was 2 mL/min/kg.
In the case of `C[C@@H](O)C1C(=O)N2C(C(=O)O)=C(S[C@@H]3CNC(C(=O)N(C)C)C3)[C@H](C)[C@@H]12` (stereo partly specified), the clearance is 3.49 mL/min/kg.
